# According to patent publication US20210253651A1, “METHOD FOR PRODUCING ORGANIC COMPOUND-ENCAPSULATING FERRITIN” (Ajinomoto Co., Inc., priority 2018, published 2021):
# Counter-ions that a name gives are not always drawn.
# Legend:
# FTL ferritin = target: T1, FTL ferritin (Homo sapiens, UniProt P02792); test: one-step incorporation of DOX into FTL ferritin; assay type: physicochemical; settings: pH 8, 50° C., 60 minutes, DOX 0.3 mg/L
# T1 construct: made in house; host or cells: Escherichia coli BL21 (DE3), plasmid pET20-FTL
# Procedure: The incorporation of the reagent into L chain reagent was carried out using the one-step process. Total synthesis was carried out for a DNA encoding a human-derived ferritin L chain (FTL (SEQ ID NO: 2)) monomer. PCR was carried out using the synthesized DNA as a template as well as the following primers: 5′-[…]-3′ (SEQ ID NO: 234) and 5′-[…]-3′ (SEQ ID NO: 235). PCR was carried out using pET20 (Merck KGaA) as a template as well as the following primers: 5′-[…]-3′ (SEQ ID NO: 5) and 5′-[…]-3′ (SEQ ID NO: 6). The resulting PCR products were purified using Wizard DNA Clean-Up System (Promega Corporation), and then subjected to In-Fusion enzyme treatment at 50° C. for 15 minutes using In-Fusion HD Cloning Kit (Takara Bio Inc.) to construct an expression plasmid (pET20-FTL) carrying a gene encoding FTL monomer.
# DOX was mixed with 1 mL of 50 mM Tris-HCl buffer (pH 8) that contains each mutate FTL ferritin at a final concentration of 1 mg/mL, to achieve a final concentration of 0.3 mg/L, and then the resulting solutions were left to stand at 50° C. for 60 minutes. […] The concentration of contained protein was determined using the protein assay CBB solution (Nacalai Tesque, Inc.) as well as bovine albumin as a standard. The DOX concentration was determined based on analysis of the absorbance at 480 nm.
# FTH ferritin [1] = target: T2, FTH ferritin (Homo sapiens, UniProt P02794); test: ratio of amounts incorporated, one-step vs disassembly-reassembly process; assay type: physicochemical
# T2 construct: made in house; host or cells: Escherichia coli BL21 (DE3), plasmid pET20-FTH
# Procedure: As a control, some of small molecule agents listed in Table 1 was incorporated into ferritin also at the disassembly-reassembly process. […] Then, 10 μL of 1M Tris-HCl buffer (pH 9.0) was added for neutralization, and the resulting solution was left to stand for 15 minutes at room temperature. After the standing, 0.5 mL of water was added. After the resulting solution was centrifuged (at 15,000 rpm for one minute), the supernatant was injected into the desalting column PD-10 (Sephadex G-25 filled product, GE Healthcare Inc.) equilibrated with 10 mM Tris-HCl buffer (pH 8) to separate the protein from a reagent that was not encapsulated. […]
# The absorbances were measured using spectrophotometer (DU-800, Beckman Coulter Inc.) for these solutions, and the concentration of contained protein was determined using the protein assay CBB solution (Nacalai Tesque, Inc.) as well as bovine albumin as a standard. Absorbances at 280 nm and 480 nm were measured for Rhodamine B and Congo Red. […] Then, after the absorbances were calibrated based on the absorbances that were derived from the proteins and presumed by the amount of contained protein quantified using the protein assay CBB solution, the concentrations of small molecule agents were determined based on the calibration curves obtained by the absorbances of the molecules. […]
# FTH ferritin [2] = target: T2, FTH ferritin; test: estimation of state of DOX in FTH ferritin internal cavity; settings: 165 molecules of DOX per molecule of FTH ferritin, cavity volume 0.18 zL
# Excerpt: Ferritin has a cage shape having a diameter of 12 nm, and the diameter of an internal cavity thereof is 7 nm. Ideally, the volume of the internal cavity is 0.18 zL (zL: Zepto little, 10 to the negative power of 21). […] In view of this, it is necessary to disassemble ferritin once to allow DOX to be released in advance for quantification of DOX incorporated in ferritin by means of spectroscopic evaluation.
# T2 sequence (P02794 whole entry): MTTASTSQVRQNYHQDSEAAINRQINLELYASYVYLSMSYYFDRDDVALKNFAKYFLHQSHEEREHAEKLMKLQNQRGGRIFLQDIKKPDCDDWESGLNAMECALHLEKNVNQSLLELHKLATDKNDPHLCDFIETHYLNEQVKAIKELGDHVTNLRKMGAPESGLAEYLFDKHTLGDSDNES
# T1 sequence (P02792 whole entry): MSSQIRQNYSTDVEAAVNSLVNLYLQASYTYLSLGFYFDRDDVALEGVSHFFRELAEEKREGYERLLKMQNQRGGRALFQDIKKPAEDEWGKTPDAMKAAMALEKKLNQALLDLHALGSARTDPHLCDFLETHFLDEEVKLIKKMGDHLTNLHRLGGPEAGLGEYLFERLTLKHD
structure (smiles),measurement,setting,value
"COc1cccc2c1C(=O)c1c(O)c3c(c(O)c1C2=O)C[C@@](O)(C(=O)CO)C[C@@H]3OC1CC(N)C(O)C(C)O1 (stereo partly drawn) [DOX, Doxorubicin hydrochloride]",incorporation efficiency of the reagent,FTL ferritin,7.0 % (wt)
same,ratio of amount incorporated at the one-step process to that at the disassembly-reassembly process,FTH ferritin [1],30 fold
same,concentration of DOX in the internal cavity of ferritin,FTH ferritin [2],890 g/L
